Data reported in patent US20150292030A1, “METHODS OF CHARACTERIZING AND TREATING MOLECULAR SUBSET OF MUSCLE-INVASIVE BLADDER CANCER” (BOARD OF REGENTS, THE UNIVERSITY OF TEXAS SYSTEM, priority 2012, published 2015).

Columns and labels:
[1] = tested on: human bladder cancer cell lines; assay: Proliferation (MTT) assay of BGJ398 on a panel of 30 human bladder cancer cell lines; type: cell-based; conditions: lines SW780, UC1, RT112, RT4 and UC14; FIG. 6
From the text: FIG. 6. Proliferation (MTT) assay testing effect of BGJ398 on human bladder cancer cell lines.
To test this possibility, the inventors examined the effects of the FGFR-selective inhibitor BGJ398 on proliferation in the inventor's panel of 30 human bladder cancer cell lines using MTT assays.

[2] = tested on: muscle-invasive bladder cancer; assay: Pathological response to neoadjuvant chemotherapy at cystectomy by cluster, discovery cohort; type: in vivo, human; conditions: cluster 2 (p53-like); FIG. 1D
From the text: Tumors and clinical data were obtained from the MD Anderson genitourinary cancers research database. Fresh frozen tissues were obtained from the SPORE Tissue Core. Of note, all patients had previously signed informed consent allowing collection of their tissue and of their clinical data in the genitourinary research database. […] Patients were classified as muscle invasive for tumor growth into the muscularis propria; otherwise, they were classified as non-muscle invasive. Total RNA from human specimens were isolated using mirVana miRNA isolation kit (Ambion, Inc).
Presurgical (neoadjuvant) cisplatin-based chemotherapy is the current standard-of-care for high-risk muscle-invasive bladder cancer. […] To examine the relationship between the 3 molecular subsets and chemotherapy sensitivity, the inventors identified 18 patients within their discovery cohort that had received neoadjuvant chemotherapy and compared the pathological response rates within each cluster. Strikingly, whereas over half of the basal/cluster 1 (3/5) and luminal/cluster 3 (4/6) tumors responded to chemotherapy, none (0/7) of the p53-like cluster 2 tumors was downstaged in this initial cohort (Table 3). […] Gene expression profiling classified 3 of the tumors as basal, 4 as luminal, and 9 as p53-like (FIG. 7). […]

Structure (SMILES) | drug sensitivity of proliferation (MTT) [1] | observed cisplatin resistance [2]
CCN1CCN(c2ccc(Nc3cc(N(C)C(=O)Nc4c(Cl)c(OC)cc(OC)c4Cl)ncn3)cc2)CC1 [BGJ398] | most drug-sensitive | 
N.N.[Cl][Pt][Cl] [cisplatin] |  | resistance
